Data taken from patent US4359465A, “Methods for treating gastrointestinal inflammation” (The Upjohn Company, priority 1980, dated 1982).

Columns and labels:
[1] = system: ethanol-induced gastric lesions; assay: Ethanol-induced gastric lesions (80% aqueous ethanol challenge), part A; format: in vivo, rat; details: rats; for gastric ulceration: oral 0.3, 1, 3, or 10 mg/kg, 30 min before 1 ml 80% ethanol, examined 1 hr later
Method: A. Four groups of rats, standard laboratory animals for determining cytoprotective effects of pharmacological agents, are fasted for 24 hr and then treated orally with (a) […], (b) cimetidine, (c) a cytoprotective prostaglandin, or (d) vehicle (10% Emulphor, 10% EtOH, 80% water). Thirty min later, the rats are challenged with an oral 1 ml dose of 80% aqueous ethanol, a standard agent for inducing gastric cytodestruction. One hr later, the rats are sacrificed (carbon dioxide asphyxiation) and the gastric tissues examined.

[2] = system: Cytoprotection Against Acidified Aspirin; details: Robert, Gastroenterology 76:1227 (1979); cited from earlier work
[3] = system: gastric secretion; details: in vivo; cited from earlier work
[4] = system: Indomethacin-Induced Small Bowel Ulceration; details: rat; Kauffman et al. (1979), title; cited from earlier work
[5] = system: gastric acid secretion; assay: Inhibition of pentagastrin-stimulated gastric acid secretion in conscious gastric fistula dogs; format: in vivo; details: Canis lupus familiaris, dog, intraduodenal, read-out: Effect % inhibition (peak inhibitory effect on gastric acid secretion)
Method: To determine the gastric acid secretion inhibitory properties, experiments have been performed on conscious dogs provided with gastric fistulas of conventional type and duodenal fistules, the latter ones used for direct introduodenal administration of the test compounds. After 18 hours starvation and deprivation of water the dogs were given subcutaneous infusion of pentagastrin (1-4 nmol/kg, h) lasting for 6-7 hours. Gastric juice was collected in consecutive 30 minutes samples. An aliquot of each sample was titrated with 0.1 N NaOH to […] for titrable acid concentration using an automatic titrator and pH-meter (Radiometer, Copenhagen, Denmark). Acid output was calculated as mmol H^+ /60 minutes. The percent inhibition compared to control experiments was calculated for each compound and the peak inhibitory effect is given in Table 2 below. The test compounds, suspended in 0.5% Methocel® (methyl cellulose), were given intraduodenally in doses from 4-20 μmol/kg when the secretory response to pentagastrin has reached a steady level. In the test prior known compounds were compared with the compounds of the present invention as will be evident from the Table 2 below. The following gastric acid inhibiting effect data were obtained for a number of compounds tested according to the method described.

[6] = system: thermally induced gastric ulceration; assay: Thermally induced gastric ulceration (boiling water); format: in vivo, rat; details: for ulcer incidence score (ulcers/stomach): rats, control score 8.0
[7] = system: gastric acid secretion; assay: Gastric acid secretion inhibition in the rat; format: in vivo
[8] = system: ethanol-induced gastric lesions; assay: Ethanol challenge with or without indomethacin pretreatment, part D; format: in vivo, rat; details: timoprazole 5 mg/kg orally, indomethacin 1 hr prior
Method: D. Because mild gastric irritants, e.g., 20% ethanol, are known to stimulate endogenous prostaglandin production, with consequent cytoprotection effects being observed, a further experiment is undertaken to determine whether timoprazole acts as a mild irritant (i.e., by stimulating endogenous cytoprotective prostaglandin production), or exerts a directly cytoprotective effect. In this experiment, rats are treated with timoprazole (5 mg/kg orally), but in each group of rats half the animals are pretreated with a NOSAC, indomethacin, 1 hr prior to treatment with timoprazole. One hr after ethanol challenge, the rats are sacrificed. […] Accordingly, the cytoprotective effects of timoprazole are not mediated by endogenous prostaglandin production.

[9] = Gastric volume / gastric emptying experiment, part B; format: in vivo, rat; details: rats, oral 0.01, 0.1, or 1.0 mg/kg; 5, 15, and 30 min after ingestion
Method: B. A further experiment is undertaken to rule out gastric emptying as a factor in the cytoprotection observed in part A above. In this experiment timoprazole was given orally at 0.01, 0.1, or 1.0 mg/kg to groups of rats and a further group of rats is treated with vehicle (same as in part A) only. As above, the rats are faster for 24 hr prior to treatment. Groups of rats are then sacrificed 5, 15, and 30 min after timoprazole ingestion. […] Accordingly, flluid accumulation in the stomach is not a factor in the cytoprotection observed in part A.

[10] = system: ethanol-induced gastric ulceration; assay: Ethanol-induced gastric ulceration, less irritant vehicle, lowest dose protecting 50% of animals, part C; format: in vivo, rat; details: rats
Source text: C. […] The rats are sacrificed one hr after timoprazole administration and the extent of gastric ulceration determined.

In the case of `CN/C(=N/CCSCc1nc[nH]c1C)NC#N` [cimetidine, N-cyano-N'-methyl-N"[2-[[(5-methyl-1H-imidazol-4-yl)methyl]thio]ethyl]gunanidine], the gastric ulceration [1] is given as “all demonstrate gastric ulcers”, the number of ulcers ([1]; oral 0.3, 1.0, 3.0 or 10.0 mg/kg, 30 min before 80% ethanol) is given as “slight decrease in the number of ulcers” and the cytoprotective effects [2] is given as “devoid of appreciable cytoprotective effects”. For the same molecule, the “inhibition of gastric secretion” value [3] was “highly potent inhibitor of gastric secretion” and the “inhibition of indomethacin-induced small bowel ulceration” value [4] was “Does Not Inhibit”.

`COC(=O)c1cc2nc([S+]([O-])Cc3cc(OC)c(C)cn3)[nH]c2cc1C` (stereo not shown) [compound 18, 2-[2-(4-methoxy-5-methyl)-pyridylmethylsulfinyl]-(5-carbomethoxy-6-methyl)-benzimidazole] gave an inhibition in vivo at 0.5 µmol/kg ([5]; dose 0.5 μol/kg) of 90%.

With `[O-][S+](Cc1ccccn1)c1nc2ccccc2[nH]1` (stereo not shown) [timoprazole, 2-[2-pyridylmethylsulfinyl]benzimidazole] the inhibition in vivo at 4 µmol/kg [5] was 50%, the “ulcer incidence score (ulcers/stomach)” value ([6]; 0.3 mg/kg) was 7.6 and the “ulcer incidence score (ulcers/stomach)” value ([6]; 1.0 mg/kg) was 5.0. For the same molecule, the “ulcer incidence score (ulcers/stomach)” value ([6]; 3.0 mg/kg) was 3.9, the “ulcer incidence score (ulcers/stomach)” value ([6]; 10.0 mg/kg) was 4.0 and the “incidence and severity of ulcers as compared to vehicle” value ([6]; rats, 0.3, 1.0, 3.0, and 10.0 mg/kg) was “uniform reduction in the incidence and severity of ulcers”. The “gastric ulceration (dose 0.3 mg/kg)” value ([1]; oral 0.3 mg/kg, 30 min before 80% ethanol) was “traces of mild ulceration”, the gastric ulceration [1] was “no gastric ulceration” and the ED50 ([7]; in the rat) was about 10 mg/kg. For the same molecule, the “ED50 for gastric acid secretion inhibition relative to lowest cytoprotective dose observed” value ([7]; rat, ratio to lowest cytoprotective dose of part A) was “at least ten”, the “difference between rats receiving indomethacin and those not receiving it” value [8] was “no significant difference” and the “changes in gastric volume versus vehicle” value [9] was “No significant changes in gastric volume”. For the same molecule, the ED50 ([10]; Rattus norvegicus, read-out: ED50 (lowest dose at which 50% of the animals treated exhibit no gastric ulceration), oral, vehicle 5% EtOH, 1% Emulphor in water) was under 1 mg/kg, the “reduction in ulceration, oral administration” value ([10]; oral 1, 3, or 10 mg/kg, 30 min before ethanol challenge) was “significant reduction in ulceration at all dosages tested” and the “reduction of number of ulcers, subcutaneous administration” value ([10]; subcutaneous 1, 3, or 10 mg/kg, 30 min before ethanol challenge) was “did not significantly reduce the number of ulcers”.

Work on `Cc1cc(C)c2[nH]c([S+]([O-])Cc3ccccn3)nc2c1` (stereo not shown) [x (4-CH3,6-CH3, H, H, H, H), 2-[2-pyridylmethylsulfinyl]-(4,6-dimethyl)benzimidazole] yielded an inhibition in vivo at 4 µmol/kg [5] of 30%.
